Like-named read-outs stand apart in the source and are kept apart here.
Tests used:
[1] = tested on: Cox B3; experiment: Anti-Coxsackie B3 CPE inhibitory assay in Vero cells; format: cell-based, Coxsackie viruses (Cox B3 Nancy strain); conditions: for IC50: Cox B3, 158TCID50, CPE, Reed and Muench
[2] = tested on: B/Jifang/13/97; experiment: Anti-influenza B CPE assay; format: cell-based
[3] = tested on: A/FM/1/47; experiment: Anti-influenza A CPE inhibitory assay in MDCK cells; format: cell-based, influenza A/FM/1/47(H1N1); conditions: for IC50: CPE, Reed and Muench
[4] = tested on: HSV-1; experiment: Anti-HSV-1 CPE assay in Vero cells; format: cell-based, HSV-1 virus

COC(=O)c1cc2c(OCC(C)C)cc(N)cc2[nH]1 [Compound 8f, Methyl 6-amino-4-isobutoxy-1H-indole-2-carboxylate]
IC50 ([1]; Vero): 7.18 µM | IC50 ([2]; Influenza B virus): > 9.43 µM | IC50 ([3]; Influenza A virus, MDCK): 9.43 µM | IC50 ([4]; Human alphaherpesvirus 1, Vero): > 28.3 µM

COC(=O)c1cc2c(OCc3ccccc3)cc(NC(C)=O)cc2[nH]1 [Compound 2e, Methyl 6-acetamido-4-(benzyloxy)-1H-indole-2-carboxylate]
IC50 ([1]; Vero): > 21.9 µM | IC50 ([3]; Influenza A virus, MDCK): > 65.7 µM | IC50 ([4]; Human alphaherpesvirus 1, Vero): > 21.9 µM

C=CCOc1cc(N)cc2[nH]c(C(=O)OC)cc12 [Compound 6f, Methyl 4-(allyloxy)-6-amino-1H-indole-2-carboxylate]
IC50 [1]: 30.1 µM | IC50 ([1]; Vero): < 50 µM | IC50 ([2]; Influenza B virus): > 30.1 µM | IC50 ([3]; Influenza A virus, MDCK): < 52 µM | IC50 ([4]; Human alphaherpesvirus 1, Vero): > 30.1 µM

CCOc1cc(N)cc2[nH]c(C(=O)OC)cc12 [Compound 9f, Methyl 6-amino-4-ethoxy-1H-indole-2-carboxylate]
IC50 ([1]; Vero): > 31.7 µM | IC50 ([2]; Influenza B virus): > 31.7 µM | IC50 ([3]; Influenza A virus, MDCK): 18.3 µM | IC50 ([4]; Human alphaherpesvirus 1, Vero): > 31.7 µM

CCOC(=O)C1=C[C@@H](OC(CC)CC)[C@H](NC(C)=O)[C@@H](N)C1 [Oseltamivir, oseltamivir, reference compound]
IC50 ([2]; Influenza B virus): 115 µM | IC50 ([3]; Influenza A virus, MDCK): 6.43 µM

Methyl 6-acetimidamido-4-methoxy-1H-indole-2-carboxylate [Compound 1e]
IC50 [1]: > 254 µM | IC50 [2]: 254 µM | antiviral activity against the influenza B strain (in words) [2]: displayed antiviral activity | IC50 [3]: 254 µM | IC50 ([4]; HSV-1, 100TCID50, CPE, Reed and Muench): > 254 µM

COC(=O)c1cc2c(OC3CC3)cc(N)cc2[nH]1 [Compound 7f, Methyl 6-amino-4-cyclopropoxy-1H-indole-2-carboxylate]
IC50 ([1]; Vero): 49.4 µM | IC50 ([3]; Influenza A virus, MDCK): > 85.5 µM | IC50 ([4]; Human alphaherpesvirus 1, Vero): > 85.5 µM

Nc1nc2c(ncn2COCCO)c(=O)[nH]1 [ACV, Acyclovir, reference compound]
IC50 ([4]; Human alphaherpesvirus 1, Vero): 1.82 µM

COC(=O)c1cc2c(OC)ccc(N)c2[nH]1 [Compound 16f, Methyl 7-amino-4-methoxy-1H-indole-2-carboxylate]
IC50 ([1]; Vero): > 33.7 µM | IC50 ([3]; Influenza A virus, MDCK): > 3.73 µM | IC50 ([4]; Human alphaherpesvirus 1, Vero): > 33.7 µM

CCOc1ccc(N)c2[nH]c(C(=O)OC)cc12 [Compound 17f, Methyl 7-amino-4-ethoxy-1H-indole-2-carboxylate]
IC50 ([1]; Vero): 10.6 µM | IC50 ([3]; Influenza A virus, MDCK): > 10.6 µM | activity towards HSV-1 (in words) [4]: showed activity | IC50 ([4]; Human alphaherpesvirus 1, Vero): 10.6 µM

COC(=O)c1cc2c(OC)cc(N)cc2[nH]1 [Compound 1f, Methyl 6-amino-4-methoxy-1H-indole-2-carboxylate]
IC50 ([1]; Vero): > 33.7 µM | IC50 ([2]; Influenza B virus): > 33.7 µM | IC50 ([3]; Influenza A virus, MDCK): < 52 µM | IC50 [3]: 33.7 µM | IC50 ([4]; Human alphaherpesvirus 1, Vero): > 33.7 µM

COC(=O)c1cc2c(OCc3ccccc3)cc(N)cc2[nH]1 [Compound 2f, Methyl 6-amino-4-(benzyloxy)-1H-indole-2-carboxylate]
IC50 ([1]; Vero): 1.59 µM | IC50 ([3]; Influenza A virus, MDCK): > 25.1 µM | IC50 ([4]; Human alphaherpesvirus 1, Vero): > 2.78 µM

CCCOc1ccc(N)c2[nH]c(C(=O)OC)cc12 [Compound 18f, Methyl 7-amino-4-propoxy-1H-indole-2-carboxylate]
IC50 [1]: 29.9 µM | IC50 ([1]; Vero): < 50 µM | IC50 ([3]; Influenza A virus, MDCK): > 3.31 µM | IC50 ([4]; Human alphaherpesvirus 1, Vero): > 29.9 µM

COC(=O)c1cc2c(OCC3CCCCC3)cc(N)cc2[nH]1 [Compound 5f, Methyl 6-amino-4-(cyclohexylmethoxy)-1H-indole-2-carboxylate]
IC50 ([1]; Vero): > 2.71 µM | IC50 ([3]; Influenza A virus, MDCK): > 8.15 µM | IC50 ([4]; Human alphaherpesvirus 1, Vero): > 8.15 µM

COC(=O)c1cc2c(OCc3ccc(OC)cc3)cc(N)cc2[nH]1 [Compound 4f, Methyl 6-amino-4-(4-methoxybenzyloxy)-1H-indole-2-carboxylate]
IC50 ([1]; Vero): > 7.58 µM | IC50 ([3]; Influenza A virus, MDCK): > 205 µM | IC50 ([4]; Human alphaherpesvirus 1, Vero): > 7.58 µM

COC(=O)c1cc2ccc(N)cc2[nH]1 [Compound 14f, Methyl 6-amino-1H-indole-2-carboxylate]
anti-Cox B3 activity (in words) [1]: showed anti-Cox B3 activity | IC50 ([1]; Vero): 67.5 µM | antiviral activity against the influenza B strain (in words) [2]: displayed antiviral activity | IC50 ([2]; Influenza B virus): 13 µM | anti-influenza A activity (in words) [3]: showed anti-influenza A activity | IC50 ([3]; Influenza A virus, MDCK): 7.53 µM | IC50 ([4]; Human alphaherpesvirus 1, Vero): > 117 µM

NC(=O)c1ncn([C@@H]2O[C@H](CO)[C@@H](O)[C@H]2O)n1 [RBV, ribavirin, reference compound]
IC50 ([1]; Vero): 1060 µM | IC50 ([2]; Influenza B virus): 10.1 µM | IC50 ([3]; Influenza A virus, MDCK): 2.58 µM

COC(=O)c1cc2c(OC(C)C)cc(N)cc2[nH]1 [Compound 10f, Methyl 6-amino-4-isopropoxy-1H-indole-2-carboxylate]
IC50 ([1]; Vero): > 89.6 µM | IC50 ([2]; Influenza B virus): > 89.6 µM | IC50 ([3]; Influenza A virus, MDCK): < 52 µM | IC50 [3]: 51.7 µM | IC50 ([4]; Human alphaherpesvirus 1, Vero): > 89.6 µM

COC(=O)c1cc2c(OCc3ccccc3)cc(OC)cc2[nH]1 [Compound 12e, Methyl 4-(benzyloxy)-6-methoxy-1H-indole-2-carboxylate]
IC50 ([1]; Vero): > 7.94 µM | IC50 ([2]; Influenza B virus): > 23.8 µM | IC50 ([4]; Human alphaherpesvirus 1, Vero): > 7.94 µM

COC(=O)c1cc2c(OCC(C)C)cc(NC(C)=O)cc2[nH]1 [Compound 8e, Methyl 6-acetamido-4-isobutoxy-1H-indole-2-carboxylate]
IC50 ([1]; Vero): > 24.4 µM | IC50 ([2]; Influenza B virus): > 8.13 µM | IC50 ([3]; Influenza A virus, MDCK): 8.13 µM | IC50 ([4]; Human alphaherpesvirus 1, Vero): > 24.4 µM

COC(=O)c1cc2ccc(N(C)C)cc2[nH]1 [Compound 15e, Methyl 6-(dimethylamino)-1H-indole-2-carboxylate]
anti-Cox B3 activity (in words) [1]: showed anti-Cox B3 activity | IC50 [1]: 44.7 µM | IC50 ([1]; Vero): < 50 µM | IC50 ([2]; Influenza B virus): > 102 µM | anti-influenza A activity (in words) [3]: showed anti-influenza A activity | IC50 ([3]; Influenza A virus, MDCK): 102 µM | activity towards HSV-1 (in words) [4]: showed activity | IC50 ([4]; Human alphaherpesvirus 1, Vero): 102 µM

COC(=O)c1cc2ccc(NC(C)=O)cc2[nH]1 [Compound 14e, Methyl 6-acetamido-1H-indole-2-carboxylate]
anti-Cox B3 activity (in words) [1]: showed anti-Cox B3 activity | IC50 ([1]; Vero): 72.8 µM | IC50 ([2]; Influenza B virus): > 95.8 µM | anti-influenza A activity (in words) [3]: showed anti-influenza A activity | IC50 ([3]; Influenza A virus, MDCK): 95.8 µM | IC50 ([4]; Human alphaherpesvirus 1, Vero): > 287 µM

COC(=O)c1cc2c(OC)cccc2[nH]1 [Compound 11e, Methyl 4-methoxy-1H-indole-2-carboxylate]
IC50 ([1]; Vero): 108 µM | IC50 ([2]; Influenza B virus): > 108 µM | IC50 ([3]; Influenza A virus, MDCK): 62.6 µM | IC50 ([4]; Human alphaherpesvirus 1, Vero): > 108 µM

COC(=O)c1cc2c(OCc3ccccc3)cccc2[nH]1 [Compound 13e, Methyl 4-(benzyloxy)-1H-indole-2-carboxylate]
IC50 ([1]; Vero): > 8.79 µM | IC50 ([2]; Influenza B virus): > 26.4 µM | IC50 ([3]; Influenza A virus, MDCK): < 52 µM | IC50 [3]: 26.4 µM | IC50 ([4]; Human alphaherpesvirus 1, Vero): > 8.79 µM

COC(=O)c1cc2c(OCc3ccc(F)cc3)cc(N)cc2[nH]1 [Compound 3f, Methyl 6-amino-4-(4-fluorobenzyloxy)-1H-indole-2-carboxylate]
IC50 ([1]; Vero): 4.55 µM | IC50 ([3]; Influenza A virus, MDCK): > 70.8 µM | IC50 ([4]; Human alphaherpesvirus 1, Vero): > 7.87 µM
